Test results from ChEMBL document CHEMBL5331092, “PROTACS: A technology with a gold rush-like atmosphere” (Eur J Med Chem, 2023).

Columns and labels:
[1] = target: T1, Protein cereblon/Estrogen receptor (Homo sapiens, UniProt P03372+Q96SW2); assay: Protac activity at CRBN E3 ligase/Estrogen receptor in human MCF7 cells assessed as induction of estrogen receptor degradation measured upto 24 hrs by ELISA method; type: cell-based
Target sequence in this assay (P03372 whole entry): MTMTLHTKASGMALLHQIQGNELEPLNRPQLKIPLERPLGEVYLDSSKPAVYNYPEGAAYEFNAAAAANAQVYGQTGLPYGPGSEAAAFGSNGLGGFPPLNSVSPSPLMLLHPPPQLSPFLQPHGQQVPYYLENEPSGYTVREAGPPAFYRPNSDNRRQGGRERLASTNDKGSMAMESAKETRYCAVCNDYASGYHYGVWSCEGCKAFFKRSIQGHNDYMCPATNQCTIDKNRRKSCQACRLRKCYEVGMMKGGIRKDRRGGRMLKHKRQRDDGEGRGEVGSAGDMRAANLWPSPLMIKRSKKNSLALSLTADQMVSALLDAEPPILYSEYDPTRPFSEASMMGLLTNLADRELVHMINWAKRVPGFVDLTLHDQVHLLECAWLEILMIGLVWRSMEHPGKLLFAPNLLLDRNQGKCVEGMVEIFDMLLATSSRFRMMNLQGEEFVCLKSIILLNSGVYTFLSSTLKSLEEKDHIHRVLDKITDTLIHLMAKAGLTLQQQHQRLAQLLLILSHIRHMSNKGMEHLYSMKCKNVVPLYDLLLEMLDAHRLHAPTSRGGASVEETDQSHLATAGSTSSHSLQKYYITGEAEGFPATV
Target sequence in this assay (Q96SW2 whole entry): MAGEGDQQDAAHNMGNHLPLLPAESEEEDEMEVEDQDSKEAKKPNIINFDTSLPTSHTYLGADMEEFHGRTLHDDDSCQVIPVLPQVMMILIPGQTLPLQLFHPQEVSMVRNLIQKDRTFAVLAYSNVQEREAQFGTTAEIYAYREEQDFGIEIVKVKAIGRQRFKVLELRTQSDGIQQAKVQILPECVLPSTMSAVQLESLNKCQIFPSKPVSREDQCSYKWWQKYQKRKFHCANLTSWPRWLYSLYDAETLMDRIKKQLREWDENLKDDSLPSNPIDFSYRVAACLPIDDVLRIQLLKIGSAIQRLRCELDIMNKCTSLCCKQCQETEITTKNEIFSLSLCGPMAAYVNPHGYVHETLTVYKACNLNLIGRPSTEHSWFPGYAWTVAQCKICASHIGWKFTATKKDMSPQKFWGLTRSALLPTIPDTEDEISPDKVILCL

[2] = target: T1, Protein cereblon/Estrogen receptor; assay: Protac activity at CRBN E3 ligase/Estrogen receptor in human MCF7 cells assessed maximum degradation at 1.5 uM measured upto 24 hrs by ELISA method relative to control; type: cell-based
Target sequence in this assay (P03372 whole entry, looked up): as the sequence (P03372 whole entry) above
Target sequence in this assay (Q96SW2 whole entry, looked up): as the sequence (Q96SW2 whole entry) above

[3] = target: T1, Protein cereblon/Estrogen receptor; assay: Protac activity at CRBN E3 ligase/Estrogen receptor in human T47D cells assessed maximum degradation at 1.5 uM measured upto 24 hrs by ELISA method relative to control; type: cell-based
Target sequence in this assay (P03372 whole entry, looked up): as the sequence (P03372 whole entry) above
Target sequence in this assay (Q96SW2 whole entry, looked up): as the sequence (Q96SW2 whole entry) above

[4] = target: T1, Protein cereblon/Estrogen receptor; assay: Protac activity at CRBN E3 ligase/Estrogen receptor in human T47D cells assessed as induction of estrogen receptor degradation measured upto 24 hrs by ELISA method; type: cell-based
Target sequence in this assay (P03372 whole entry): as the sequence (P03372 whole entry) above
Target sequence in this assay (Q96SW2 whole entry): as the sequence (Q96SW2 whole entry) above

[5] = target: Protein cereblon/Focal adhesion kinase 1 (Homo sapiens) (UniProt Q05397+Q96SW2); assay: Protac activity at CRBN E3 ligase/FAK (unknown origin) assessed as […] FAK degradation at 10 nM relative to control; type: protein assay; design: scale not given: the % may be the effect or the level left
[6] = target: Protein cereblon/Tyrosine-protein kinase BTK (Homo sapiens, UniProt Q06187+Q96SW2); assay: PROTAC activity at CRBN/BTK in human TMD8 cells assessed as induction of BTK degradation incubated for 24 hrs by immunoblotting analysis; type: cell-based
[7] = target: von Hippel-Lindau disease tumor suppressor/Androgen receptor (Homo sapiens) (UniProt P10275+P40337); assay: PROTAC activity at VHL/AR in human VCaP cells assessed as maximum degradation at 5 nM relative to control; type: cell-based
Chain of von Hippel-Lindau disease tumor suppressor/Androgen receptor (Homo sapiens) (P10275 whole entry, looked up): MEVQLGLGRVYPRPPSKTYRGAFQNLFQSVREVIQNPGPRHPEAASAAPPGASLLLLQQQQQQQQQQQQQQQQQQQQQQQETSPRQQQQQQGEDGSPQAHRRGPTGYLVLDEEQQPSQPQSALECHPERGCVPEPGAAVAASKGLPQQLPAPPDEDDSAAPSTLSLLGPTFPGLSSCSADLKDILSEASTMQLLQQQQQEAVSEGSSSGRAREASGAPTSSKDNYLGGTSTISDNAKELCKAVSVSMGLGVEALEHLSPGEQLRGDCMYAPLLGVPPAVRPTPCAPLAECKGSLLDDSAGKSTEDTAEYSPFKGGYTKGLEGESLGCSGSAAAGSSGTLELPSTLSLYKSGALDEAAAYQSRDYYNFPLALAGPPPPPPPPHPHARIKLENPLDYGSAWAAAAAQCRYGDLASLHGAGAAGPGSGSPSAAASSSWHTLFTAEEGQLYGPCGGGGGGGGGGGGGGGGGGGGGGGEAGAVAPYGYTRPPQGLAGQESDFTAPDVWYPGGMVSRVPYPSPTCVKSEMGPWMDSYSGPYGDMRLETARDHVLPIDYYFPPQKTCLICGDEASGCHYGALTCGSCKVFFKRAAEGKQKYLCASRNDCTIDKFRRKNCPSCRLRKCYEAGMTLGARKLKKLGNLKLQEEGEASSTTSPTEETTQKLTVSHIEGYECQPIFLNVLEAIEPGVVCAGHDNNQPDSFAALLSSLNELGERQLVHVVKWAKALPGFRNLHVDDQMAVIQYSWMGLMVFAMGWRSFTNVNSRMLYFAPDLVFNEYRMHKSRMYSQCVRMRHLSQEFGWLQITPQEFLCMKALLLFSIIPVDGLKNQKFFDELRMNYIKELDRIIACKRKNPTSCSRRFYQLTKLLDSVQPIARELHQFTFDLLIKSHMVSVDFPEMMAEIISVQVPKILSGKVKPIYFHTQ
Chain of von Hippel-Lindau disease tumor suppressor/Androgen receptor (Homo sapiens) (P40337 whole entry, looked up): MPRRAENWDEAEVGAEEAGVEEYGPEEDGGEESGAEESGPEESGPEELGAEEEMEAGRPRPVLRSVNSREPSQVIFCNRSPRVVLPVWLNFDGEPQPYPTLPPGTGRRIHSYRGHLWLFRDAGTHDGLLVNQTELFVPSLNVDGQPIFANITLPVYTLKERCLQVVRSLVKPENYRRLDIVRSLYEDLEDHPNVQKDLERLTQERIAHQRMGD

Chain of Protein cereblon/Tyrosine-protein kinase BTK (Q06187 whole entry): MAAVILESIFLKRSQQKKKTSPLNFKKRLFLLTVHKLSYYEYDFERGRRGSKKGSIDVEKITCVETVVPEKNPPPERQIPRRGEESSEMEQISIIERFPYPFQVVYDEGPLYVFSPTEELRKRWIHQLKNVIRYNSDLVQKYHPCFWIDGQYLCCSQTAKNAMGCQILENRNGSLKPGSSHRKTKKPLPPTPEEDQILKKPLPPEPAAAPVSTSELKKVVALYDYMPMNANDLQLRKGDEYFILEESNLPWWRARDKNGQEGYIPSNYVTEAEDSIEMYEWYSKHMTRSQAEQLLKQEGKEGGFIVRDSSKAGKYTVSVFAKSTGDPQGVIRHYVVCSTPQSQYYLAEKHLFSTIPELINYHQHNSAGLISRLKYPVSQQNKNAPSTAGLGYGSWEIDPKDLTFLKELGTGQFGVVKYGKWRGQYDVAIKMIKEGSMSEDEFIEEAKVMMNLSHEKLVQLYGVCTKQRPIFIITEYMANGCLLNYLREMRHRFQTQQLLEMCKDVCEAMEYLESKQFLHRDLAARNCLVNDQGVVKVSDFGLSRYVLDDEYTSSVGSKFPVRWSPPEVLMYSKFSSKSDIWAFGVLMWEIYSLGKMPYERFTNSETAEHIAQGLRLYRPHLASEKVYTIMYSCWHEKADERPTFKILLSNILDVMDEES
Chain of Protein cereblon/Tyrosine-protein kinase BTK (Q96SW2 whole entry): as the sequence (Q96SW2 whole entry) above
Chain of Protein cereblon/Focal adhesion kinase 1 (Homo sapiens) (Q05397 2-1052 limits assumed): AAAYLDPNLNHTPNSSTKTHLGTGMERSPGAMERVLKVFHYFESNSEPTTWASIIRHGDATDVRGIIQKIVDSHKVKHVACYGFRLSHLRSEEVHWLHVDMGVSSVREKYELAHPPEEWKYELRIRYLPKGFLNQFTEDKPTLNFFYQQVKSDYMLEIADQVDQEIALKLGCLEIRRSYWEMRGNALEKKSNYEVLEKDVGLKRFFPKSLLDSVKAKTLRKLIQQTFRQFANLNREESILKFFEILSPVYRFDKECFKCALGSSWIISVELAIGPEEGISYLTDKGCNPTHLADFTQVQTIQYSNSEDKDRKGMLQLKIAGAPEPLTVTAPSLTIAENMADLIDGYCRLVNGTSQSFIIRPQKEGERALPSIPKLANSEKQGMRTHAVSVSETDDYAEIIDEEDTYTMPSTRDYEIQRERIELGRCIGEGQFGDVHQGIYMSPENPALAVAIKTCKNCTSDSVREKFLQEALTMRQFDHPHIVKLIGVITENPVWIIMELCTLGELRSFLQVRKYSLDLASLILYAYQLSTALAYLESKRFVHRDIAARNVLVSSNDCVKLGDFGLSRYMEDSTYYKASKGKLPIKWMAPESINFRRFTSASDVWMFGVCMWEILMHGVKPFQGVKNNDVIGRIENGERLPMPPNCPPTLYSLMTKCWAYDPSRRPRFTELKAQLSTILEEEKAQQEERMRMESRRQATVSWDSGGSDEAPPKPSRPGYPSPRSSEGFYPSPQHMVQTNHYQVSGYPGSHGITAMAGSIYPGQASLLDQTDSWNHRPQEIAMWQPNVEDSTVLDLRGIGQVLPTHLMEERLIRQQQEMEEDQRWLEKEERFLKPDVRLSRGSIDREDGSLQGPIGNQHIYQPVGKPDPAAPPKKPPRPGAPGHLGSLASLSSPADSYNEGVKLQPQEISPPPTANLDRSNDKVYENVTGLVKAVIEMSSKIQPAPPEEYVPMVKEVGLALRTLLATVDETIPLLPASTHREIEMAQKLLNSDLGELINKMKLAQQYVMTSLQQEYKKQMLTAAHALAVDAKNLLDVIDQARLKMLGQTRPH
Chain of Protein cereblon/Focal adhesion kinase 1 (Homo sapiens) (Q96SW2 whole entry partner): as the sequence (Q96SW2 whole entry) above

SMILES: Cc1ncsc1-c1ccc([C@H](C)NC(=O)C2C[C@@H](O)CN2C(=O)[C@@H](NC(=O)CCCCOc2ccc(/C=N/NC(=O)c3ccc(C(=O)c4c(-c5ccc(O)cc5)sc5cc(O)ccc45)cc3)cc2)C(C)(C)C)cc1 (some centres undefined)
- EC50 [1]: 10 nM
- Emax [2]: > 95%
- Emax [3]: > 95%
- EC50 [4]: 10 nM

SMILES: Cc1ncsc1-c1ccc([C@H](C)NC(=O)C2C[C@@H](O)CN2C(=O)[C@@H](NC(=O)CCCCOc2ccc(CCNC(=O)c3ccc(C(=O)c4c(-c5ccc(O)cc5)sc5cc(O)ccc45)cc3)cc2)C(C)(C)C)cc1 (some centres undefined)
- EC50 [1]: 1.1 nM
- Emax [2]: 98%

SMILES: CN(c1ncccc1CNc1nc(Nc2ccc(NC(=O)c3cn(CCOCCOCCNc4cccc5c4C(=O)N(C4CCC(=O)NC4=O)C5=O)nn3)cc2)ncc1C(F)(F)F)S(C)(=O)=O (centres undefined)
- Activity [5]: 90%

SMILES: Cc1cccc(C)c1Nc1nn(C)c2nc(Nc3ccc4c(c3)CN(CC3CCN(c5ccc6c(c5)C(=O)N(C5CCC(=O)NC5=O)C6=O)CC3)CC4)ncc12 (centres undefined)
- EC50 [6]: 4 nM

SMILES: Cc1ncsc1-c1ccc(CNC(=O)C2C[C@@H](O)CN2C(=O)C(NC(=O)COCCCCOc2ccc(-c3ccc(N4C(=S)N(c5ccc(C#N)c(C(F)(F)F)c5)C(=O)C4(C)C)cc3)cc2)C(C)(C)C)cc1 (some centres undefined)
- Emax [7]: 95%
